Source: the supplement of paper PMC11208160

Assay: recombinant barcode read abundance after kanamycin selection (control-corrected) (log10(CPM+1)); higher = more efficient recombination; sequences stand for … in AGTGCAGAGAAAATCGGCCAGTTTTCTCTGCCTGCAGTCCGCATGCCGT…AGATTTATGCAGCGGACTGCCTTTCTCCCAAAGTGATAAACCGGACAGTATCATGGACCGGTTTTCCCGGTAATCCGTATTTGCAAGGTTGGTTTCACT; site = the 11-nt target
In short: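 Targets were screened in pooled form in E. coli against IS621 bridge RNA target-binding loops. Recombination efficiency is based on barcode counts at recombinant junctions in counts per million, averaged and corrected for the control. Numbers are shown as log10(CPM+1), with duplicate plates on chloramphenicol/ampicillin LB agar (control) or chloramphenicol/ampicillin/kanamycin with 0.1 mM IPTG.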
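Note: IS621 recombinase and bridge RNA in Escherichia coli cells.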

Q: Which “recombinant barcode read abundance (log10)” value does the source give for “GTATGAACTTGGGTTCTAACCTGTTGCCT (site GTATGAGCTAG)” here?
A: The value was 0.384.

Q: Which “recombinant barcode read abundance (log10)” value does the source give for “GTATGAACTTGGGTTCTAACCTGTTGCCT (site GTATGATCTAG)” here?
A: Its value is 0.119.

Q: For “GTATGACCTTGGGTTCTAACCTGTTGCTT (site GTAGCACCTAA)”, which “recombinant barcode read abundance (log10)” value is on record?
A: Its value is 0.0633.

Q: For “GTATGACCTTGGGTTCTAACCTGTTGCTT (site GTATGACCTAA)”, which “recombinant barcode read abundance (log10)” value is on record?
A: The value was 1.54.

Q: Which “recombinant barcode read abundance (log10)” value does the source give for “GTATGAGCTTGGGTTCTAACCTGTTGCTG (site ATTTGAGCTCA)” here?
A: Its value is 0.288.

Q: Which “recombinant barcode read abundance (log10)” value does the source give for “GTATGAGCTTGGGTTCTAACCTGTTGCTG (site GTATGAGCTCA)” here?
A: The value was 1.51.

Q: For “GTATGATCTTGGGTTCTAACCTGTTGCAT (site GTATGATCTAT)”, which “recombinant barcode read abundance (log10)” value is on record?
A: The value was 0.807.

Q: Which “recombinant barcode read abundance (log10)” value does the source give for “GTATGATCTTGGGTTCTAACCTGTTGCAT (site GTATGTACTAT)” here?
A: Its value is 0.106.

Q: With “GTATGATCTTGGGTTCTAACCTGTTGCCT (site GTATGAACTAG)” as the sequence, how does the “recombinant barcode read abundance (log10)” value read?
A: The value was 0.026.

Q: For “GTATGATCTTGGGTTCTAACCTGTTGCCT (site GTATGACCTAG)”, which “recombinant barcode read abundance (log10)” value is on record?
A: Its value is 0.0755.

Q: For “GTATGATCTTGGGTTCTAACCTGTTGCCT (site GTATGAGCTAG)”, which “recombinant barcode read abundance (log10)” value is on record?
A: The value was 0.742.

Q: For “GTATGATCTTGGGTTCTAACCTGTTGCCT (site GTATGATCTAG)”, which “recombinant barcode read abundance (log10)” value is on record?
A: The value was 1.45.

Q: With “GTATGGACTTGGGTTCTAACCTGTTGCAA (site CATCAAGCTAG)” as the sequence, how does the “recombinant barcode read abundance (log10)” value read?
A: Its value is 0.138.

Q: With “GTATGGACTTGGGTTCTAACCTGTTGCAA (site GTATGGACTTT)” as the sequence, how does the “recombinant barcode read abundance (log10)” value read?
A: Its value is 1.32.

Q: For “GTATGTGCTTGGGTTCTAACCTGTTGCGG (site GTATGAGCTCC)”, which “recombinant barcode read abundance (log10)” value is on record?
A: Its value is 0.689.

Q: With “GTATGTGCTTGGGTTCTAACCTGTTGCGG (site GTATGTGCTCC)” as the sequence, how does the “recombinant barcode read abundance (log10)” value read?
A: Its value is 2.84.

Q: With “GTATTTCCTTGGGTTCTAACCTGTTGCTT (site GTATCTCCTAA)” as the sequence, how does the “recombinant barcode read abundance (log10)” value read?
A: The value was 0.0837.

Q: Which “recombinant barcode read abundance (log10)” value does the source give for “GTATTTCCTTGGGTTCTAACCTGTTGCTT (site GTATTTCCTAA)” here?
A: The value was 0.782.

Q: With “GTCAAGACTTGGGTTCTAACCTGTTGCCA (site GTCAAGACTCG)” as the sequence, how does the “recombinant barcode read abundance (log10)” value read?
A: The value was 0.3.

Q: With “GTCAAGACTTGGGTTCTAACCTGTTGCCA (site GTCAAGACTTG)” as the sequence, how does the “recombinant barcode read abundance (log10)” value read?
A: Its value is 1.03.

Q: Which “recombinant barcode read abundance (log10)” value does the source give for “GTCACCTCTTGGGTTCTAACCTGTTGCTA (site GTAACCTCTGA)” here?
A: The value was 0.217.

Q: For “GTCACCTCTTGGGTTCTAACCTGTTGCTA (site GTCACCTCTTA)”, which “recombinant barcode read abundance (log10)” value is on record?
A: Its value is 1.58.

Q: With “GTCACTACTTGGGTTCTAACCTGTTGCAT (site AAGGTACCTCC)” as the sequence, how does the “recombinant barcode read abundance (log10)” value read?
A: Its value is 0.139.

Q: Which “recombinant barcode read abundance (log10)” value does the source give for “GTCACTACTTGGGTTCTAACCTGTTGCAT (site GTCACTACTAT)” here?
A: Its value is 0.381.

Q: For “GTCAGCTCTTGGGTTCTAACCTGTTGCTA (site GACCGCTCTTA)”, which “recombinant barcode read abundance (log10)” value is on record?
A: Its value is 0.127.

Q: With “GTCAGCTCTTGGGTTCTAACCTGTTGCTA (site GTCAGCTCTTA)” as the sequence, how does the “recombinant barcode read abundance (log10)” value read?
A: Its value is 1.16.

Q: With “GTCATACCTTGGGTTCTAACCTGTTGCCT (site GTCATACCTAG)” as the sequence, how does the “recombinant barcode read abundance (log10)” value read?
A: The value was 1.02.

Q: With “GTCATACCTTGGGTTCTAACCTGTTGCCT (site GTCCTACCTAG)” as the sequence, how does the “recombinant barcode read abundance (log10)” value read?
A: The value was 0.0356.

Q: Which “recombinant barcode read abundance (log10)” value does the source give for “GTCATACCTTGGGTTCTAACCTGTTGCCT (site GTCGTACCTAG)” here?
A: The value was 0.111.

Q: For “GTCATACCTTGGGTTCTAACCTGTTGCCT (site GTCTTACCTAG)”, which “recombinant barcode read abundance (log10)” value is on record?
A: The value was 0.203.

Q: For “GTCATGCCTTGGGTTCTAACCTGTTGCCT (site GGCCTGCCTAG)”, which “recombinant barcode read abundance (log10)” value is on record?
A: The value was 0.0766.

Q: With “GTCATGCCTTGGGTTCTAACCTGTTGCCT (site GTCATGCCTAG)” as the sequence, how does the “recombinant barcode read abundance (log10)” value read?
A: Its value is 1.1.

Q: For “GTCCACCCTTGGGTTCTAACCTGTTGCAG (site GTCCACCCTCT)”, which “recombinant barcode read abundance (log10)” value is on record?
A: Its value is 1.86.

Q: Which “recombinant barcode read abundance (log10)” value does the source give for “GTCCACCCTTGGGTTCTAACCTGTTGCAG (site GTCCACTCTGT)” here?
A: The value was 0.01.

Q: For “GTCCACTCTTGGGTTCTAACCTGTTGCTT (site GTCCACTCTAA)”, which “recombinant barcode read abundance (log10)” value is on record?
A: Its value is 1.46.

Q: Which “recombinant barcode read abundance (log10)” value does the source give for “GTCCACTCTTGGGTTCTAACCTGTTGCTT (site GTCCAGTCTAC)” here?
A: Its value is 0.
